Assay results published in patent US6348468B1, “Pyridazine compounds and compositions containing the same” (Kowa Co., Ltd., priority 1997, dated 2002).
pIC50: −log10 of the molar value.

What was measured:
[1] = system: Interleukin-1β (IL-1β) Production; assay: Inhibitory activity against interleukin-1β production (LPS-stimulated HL-60 cells, ELISA); assay type: cell-based; details: Homo sapiens, 72 h, lipopolysaccharide 10 μg/ml, culturing for 3 days
Method: HL-60 cells were cultured for 4 days until confluence on RPMI 1640 medium with 10% fetal bovine serum (FBS) added thereto. The HL-60 cells were centrifuged. The supernatant was discarded, and the cells were then suspended at 1×10^6 cells/ml on RPMI 1640 medium with 3% FBS, and lipopolysaccharide was added to give a final concentration of 10 μg/ml. The culture was inoculated at 1 ml/well to a 24-well plate. A test sample was added at 1 μl/well, followed by culturing for 3 days. Three days later, the amount of interleukin-1β in each of the cultures was measured by ELISA. Its IC50 value was determined by a comparison in yield with a control to which no test sample was added.

TNF-α Production = assay: Inhibitory activity against TNF-α production (LPS-stimulated RAW 264.7 cells, L-929 cytotoxicity readout); assay type: cell-based; details: Mus musculus, RAW264.7, lipopolysaccharide, culturing for 20 hours
Method: RAW 264.7 cells were cultured until confluence on DMEM culture with 10% fetal bovine serum (FBS), and were diluted to 1×10^6 cells/ml with the same medium and then inoculated at 100 μl/well to a 96-well plate. To the cells, a test sample which had been diluted with the same medium and lipopolysaccharide of 4 μg/ml was added at 50 μl/well, respectively. Subsequent to culturing for 20 hours, the cultures were collected.
Making use of cytotoxicity to L-929 cell strain, a TNF-α sensitive cell strain, the amount of TNF-α in each of the cultures was measured as will be described next. Described specifically, L-929 cells which had been cultured on MEM medium with 10% FBS added thereto were diluted to 2×10^5 cells/ml with the same medium, and were then inoculated at 100 μl/well to a 96-well plate. Subsequent to overnight incubation, standard TNF-α solutions, or 100-fold, 200-fold and 500-fold dilute solutions of the above-described culture of RAW 264.7 cells were added at 50 μl/well, and actinomycin D (4 μg/ml) was also added at 50 μl/well, followed by further culturing for 20 hours. Twenty hours later, each well was washed with PBS, viable cells were stained with crystal violet, and the inhibitory activity against TNF-α production was determined with reference to a standard curve of TNF-α.

IL-6 Production = assay: Inhibitory activity against IL-6 production (LPS-stimulated RAW 264.7 cells, ELISA); assay type: cell-based; details: Mus musculus, RAW264.7, lipopolysaccharide, culturing for 20 hours
Method: RAW 264.7 cells, which had been cultured until confluence on DMEM culture with 10% fetal bovine serum (FBS) added thereto, were diluted to 1×10^6 cells/ml with the same medium, and were then inoculated at 100 μl/well to a 96-well plate. A test sample which had been diluted with the same medium and lipopolysaccharide of 4 μg/ml in concentration was added at 50 μl/well, respectively. Subsequent to culturing for 20 hours, the cultures were collected.
The amount of IL-6 in each of the thus-obtained cultures of RAW 264.7 cells was measured by ELISA, and 5 the inhibitory activity against IL-6 production was determined with reference to a standard curve of IL-6.

[2] = system: collagen-induced arthritis models of mice; assay: Therapeutic effects for arthritis in collagen-induced arthritis models of mice; assay type: in vivo; details: P.O.; for Percent inhibition to swelling: determined by quantitation of swelling; for Percent inhibition to arthritis development: determined depending on the existence or non-existence of swelling
Method: In accordance with the disclosure of Nature 283, 666-668, 1980, therapeutic effects for arthritis were evaluated by using collagen-induced arthritis models of mice.

rats = assay: Maximum no-effect level, oral once a day for 2 weeks, rats; assay type: in vivo; details: orally once a day for 2 weeks
dogs = assay: Maximum no-effect level, oral once a day for 2 weeks, dogs; assay type: in vivo; details: orally once a day for 2 weeks

| Compound | pIC50 [1] | melting point [°C] | also measured |
| --- | --- | --- | --- |
| COc1ccc(-c2cc(=O)n(CCO)nc2-c2ccc(OC)cc2)cc1 [Comp. Comp'd 2] | 4.34 | – | pIC50 (TNF-α Production): 4.59; pIC50 (IL-6 Production): 4.36 |
| CSc1ccc(-c2nn(Cc3ccc(Cl)cc3Cl)c(=S)cc2-c2ccc(Cl)cc2)cc1 [Example 134, 5-(4-chlorophenyl)-2-(2,4-dichlorobenzyl)-6-[4-(methylthio)phenyl]-2H-pyridazine-3-thione] | 6.70 | 183.2 to 183.4 | – |
| CSc1ccc(-c2nn(Cc3ccc(Cl)cc3Cl)c(=O)cc2-c2ccc(F)cc2)cc1 [Example 65, 5-(4-fluorophenyl)-6-[4-(methylthio)phenyl]-2-(2,4-dichlorobenzyl)-2H-pyridazin-3-one] | 6.41 | 139.3 to 139.5 | – |
| CSc1ccc(-c2nn(Cc3ccccc3)c(=O)cc2-c2ccc(Cl)cc2)cc1 [Example 51, 2-benzyl-5-(4-chlorophenyl)-6-[4-(methylthio)phenyl]-2H-pyridazin-3-one] | 6.54 | – | Percent inhibition to swelling ([2]; 1 mg/kg): 33.3%; Percent inhibition to arthritis development ([2]; 1 mg/kg): 40%; Percent inhibition to swelling ([2]; 3 mg/kg): 77.4%; Percent inhibition to arthritis development ([2]; 3 mg/kg): 50%; Maximum no-effect level (rat) (rats): 100 mg/kg; toxicity at the dose level of Table 4 (in words) (rats): no toxicity was observed at all; Maximum no-effect level (dog) (dogs): 30 mg/kg; toxicity at the dose level of Table 4 (in words) (dogs): no toxicity was observed at all |
| COc1ccc(-c2cc(=O)n(C3CCCC3)nc2-c2ccc(OC)cc2)cc1 [Example 171, 5,6-bis(4-methoxyphenyl)-2-cyclopentyl-2H-pyridazin-3-one] | 6.29 | 141.2 to 142.2 | – |
| CSc1ccc(-c2nn(Cc3ccccc3)c(=O)cc2-c2ccc(F)cc2)cc1 [Example 61, 5-(4-fluorophenyl)-6-[4-(methylthio)phenyl]-2-benzyl-2H-pyridazin-3-one] | 6.68 | 140.6 to 140.7 | – |
| CSc1ccc(-c2nn(CC3CC3)c(=S)cc2-c2ccc(F)cc2)cc1 [Example 137, 2-cyclopropylmethyl-5-(4-fluorophenyl)-6-[4-(methylthio)phenyl]-2H-pyridazine-3-thione] | 6.57 | 135.7 to 135.8 | – |
| CCn1nc(-c2ccc(OC)c(F)c2)c(-c2ccc(OC)c(F)c2)cc1=O [Example 160, 5,6-bis(3-fluoro-4-methoxyphenyl)-2-ethyl-2H-pyridazin-3-one] | 6.31 | 177.8 to 178.5 | – |
| COc1ccc(-c2cc(=O)n(Cc3cc(OC)c(OC)c(OC)c3)nc2-c2ccc(OC)cc2)cc1 [Example 16, 5,6-bis(4-methoxyphenyl)-2-(3,4,5-trimethoxybenzyl)-2H-pyridazin-3-one] | 6.64 | – | – |
| COc1ccc(-c2cc(=O)n(CCCl)nc2-c2ccc(OC)cc2)cc1 [Comp. Comp'd 1] | 4.54 | – | pIC50 (TNF-α Production): 5.00; pIC50 (IL-6 Production): 4.19 |
| COc1ccc(-c2cc(=O)n(Cc3cccnc3)nc2-c2ccc(OC)cc2)cc1 [Example 44, 5,6-bis(4-methoxyphenyl)-2-(3-pyridylmethyl)-2H-pyridazin-3-one] | 6.37 | 167.4 to 168.4 | – |
| COc1ccc(-c2cc(=O)n(CC=Cc3ccc(F)cc3)nc2-c2ccc(OC)cc2)cc1 [Example 30, 5,6-bis(4-methoxyphenyl)-2-(4-fluorocinnamyl)-2H-pyridazin-3-one] | 6.77 | – | – |
| COc1ccc(-c2cc(=O)n(CCN(C)C)nc2-c2ccc(OC)cc2)cc1 [Comp. Comp'd 3, reference compound] | < 4.00 | – | – |
| COc1ccc(-c2cc(=O)n(C)nc2-c2ccc(OC)cc2)cc1 [Example 164, 5,6-bis(4-methoxyphenyl)-2-methyl-2H-pyridazin-3-one] | 5.95 | – | – |
| COc1ccc(-c2cc(=O)n(CC=Cc3ccc(Cl)cc3Cl)nc2-c2ccc(OC)cc2)cc1 [Example 40, 5,6-bis(4-methoxyphenyl)-2-(2,4-dichlorocinnamyl)-2H-pyridazin-3-one] | 6.57 | – | – |
| COc1ccc(-c2cc(=S)n(Cc3ccccc3)nc2-c2ccc(OC)cc2)cc1 [Example 123, 5,6-bis(4-methoxyphenyl)-2-benzyl-2H-pyridazine-3-thione] | 6.72 | 134.7 to 148.6 | – |
| CSc1ccc(-c2nn(Cc3cccnc3)c(=S)cc2-c2ccc(Cl)cc2)cc1 [Example 135, 5-(4-chlorophenyl)-6-[4-(methylthio)phenyl]-2-(3-pyridylmethyl)-2H-pyridazine-3-thione] | 6.41 | – | – |
| COc1ccc(-c2cc(=S)n(Cc3cccnc3)nc2-c2ccc(OC)cc2)cc1 [Example 128, 5,6-bis(4-methoxyphenyl)-2-(3-pyridylmethyl)-2H-pyridazine-3-thione] | 6.51 | – | – |
| CCn1nc(-c2ccc(OC)cc2)c(-c2ccc(OC)cc2)cc1=O [Example 163, 5,6-bis(4-methoxyphenyl)-2-ethyl-2H-pyridazin-3-one] | 6.21 | – | pIC50 (TNF-α Production): 5.92; pIC50 (IL-6 Production): 6.40 |
